Measurements from article PMC10408569, “Recruitment of hexahydroquinoline as anticancer scaffold targeting inhibition of wild and mutants EGFR (EGFR^WT, EGFR^T790M, and EGFR^L858R)” (Journal of Enzyme Inhibition and Medicinal Chemistry, 2023).

Columns and labels:
Assay in all cases: NCI-60 anticancer screening (SRB)
Format in all cases: cell-based
[1] = tested on: CCRF-CEM; conditions: Homo sapiens, leukemia, one dose 10 μM, read-out: Growth Inhibition Percentage (GI %)
[2] = tested on: K-562; conditions: Homo sapiens, K562; K-562, leukemia; one dose 10 μM; read-out: Growth Inhibition Percentage (GI %)
[3] = tested on: RPMI-8226; conditions: Homo sapiens; RPMI-8226, leukemia; one dose 10 μM; read-out: Growth Inhibition Percentage (GI %)
[4] = tested on: SR; conditions: Homo sapiens, leukemia, one dose 10 μM, read-out: Growth Inhibition Percentage (GI %)
[5] = tested on: HOP-92; conditions: Homo sapiens; HOP-92, NSC lung cancer; one dose 10 μM; read-out: Growth Inhibition Percentage (GI %)
[6] = tested on: NCI-H460; conditions: Homo sapiens; NCI-H460, NSC lung cancer; one dose 10 μM; read-out: Growth Inhibition Percentage (GI %)
[7] = tested on: HCT-116; conditions: Homo sapiens; HCT-116, colon cancer; one dose 10 μM; read-out: Growth Inhibition Percentage (GI %)
[8] = tested on: HT29; conditions: Homo sapiens, HT-29; HT29, colon cancer; one dose 10 μM; read-out: Growth Inhibition Percentage (GI %)
[9] = tested on: SW-620; conditions: Homo sapiens; SW-620, colon cancer; one dose 10 μM; read-out: Growth Inhibition Percentage (GI %)
[10] = tested on: SF-268; conditions: Homo sapiens; SF-268, CNS cancer; one dose 10 μM; read-out: Growth Inhibition Percentage (GI %)
[11] = tested on: SF-295; conditions: Homo sapiens; SF-295, CNS cancer; one dose 10 μM; read-out: Growth Inhibition Percentage (GI %)
[12] = tested on: SF-539; conditions: Homo sapiens; SF-539, CNS cancer; one dose 10 μM; read-out: Growth Inhibition Percentage (GI %)
[13] = tested on: LOX IMVI; conditions: Homo sapiens, melanoma, one dose 10 μM, read-out: Growth Inhibition Percentage (GI %)
[14] = tested on: M14; conditions: Homo sapiens; M14, melanoma; one dose 10 μM; read-out: Growth Inhibition Percentage (GI %)
[15] = tested on: SK-MEL-28; conditions: Homo sapiens; SK-MEL-28, melanoma; one dose 10 μM; read-out: Growth Inhibition Percentage (GI %)
[16] = tested on: SK-MEL-5; conditions: Homo sapiens; SK-MEL-5, melanoma; one dose 10 μM; read-out: Growth Inhibition Percentage (GI %)
[17] = tested on: UACC-62; conditions: Homo sapiens; UACC-62, melanoma; one dose 10 μM; read-out: Growth Inhibition Percentage (GI %)
[18] = tested on: OVCAR-4; conditions: Homo sapiens; OVCAR-4, ovarian cancer; one dose 10 μM; read-out: Growth Inhibition Percentage (GI %)
[19] = tested on: SK-OV-3; conditions: Homo sapiens; SK-OV-3, ovarian cancer; one dose 10 μM; read-out: Growth Inhibition Percentage (GI %)
[20] = tested on: A498; conditions: Homo sapiens; A498, renal cancer; one dose 10 μM; read-out: Growth Inhibition Percentage (GI %)
[21] = tested on: ACHN; conditions: Homo sapiens, renal cancer, one dose 10 μM, read-out: Growth Inhibition Percentage (GI %)
[22] = tested on: RXF 393; conditions: Homo sapiens; RXF 393, renal cancer; one dose 10 μM; read-out: Growth Inhibition Percentage (GI %)
[23] = tested on: SN 12C; conditions: Homo sapiens, SN12C; SN 12C, renal cancer; one dose 10 μM; read-out: Growth Inhibition Percentage (GI %)
[24] = tested on: TK-10; conditions: Homo sapiens; TK-10, renal cancer; one dose 10 μM; read-out: Growth Inhibition Percentage (GI %)
[25] = tested on: PC-3; conditions: Homo sapiens; PC-3, prostate cancer; one dose 10 μM; read-out: Growth Inhibition Percentage (GI %)
[26] = tested on: MCF7; conditions: Homo sapiens; MCF7, breast cancer; one dose 10 μM; read-out: Growth Inhibition Percentage (GI %)
[27] = tested on: HS 578T; conditions: Homo sapiens; HS 578T, breast cancer; one dose 10 μM; read-out: Growth Inhibition Percentage (GI %)
[28] = tested on: T-47D; conditions: Homo sapiens, T47D, breast cancer, one dose 10 μM, read-out: Growth Inhibition Percentage (GI %)

## CCOC(=O)C1=C(N)N(c2ccccc2)C2=C(C(=O)CC(C)(C)C2)C1c1ccccc1OC (racemic) [6g, (±)-Ethyl 2-amino-4–(2-methoxyphenyl)-7,7-dimethyl-5-oxo-1-phenyl-1,4,5,6,7,8-hexahydroquinoline-3-carboxylate]
[1]
  inhibition at 10 µM: < 10%
[2]
  inhibition at 10 µM: < 10%
[3]
  inhibition at 10 µM: < 10%
[4]
  inhibition at 10 µM: < 10%
[5]
  inhibition at 10 µM: < 10%
[6]
  inhibition at 10 µM: < 10%
[7]
  inhibition at 10 µM: < 10%
[8]
  inhibition at 10 µM: < 10%
[9]
  inhibition at 10 µM: < 10%
[10]
  inhibition at 10 µM: < 10%
[11]
  inhibition at 10 µM: 11%
[12]
  inhibition at 10 µM: < 10%
[13]
  inhibition at 10 µM: < 10%
[14]
  inhibition at 10 µM: < 10%
[15]
  inhibition at 10 µM: < 10%
[16]
  inhibition at 10 µM: < 10%
[17]
  inhibition at 10 µM: < 10%
[18]
  inhibition at 10 µM: < 10%
[19]
  inhibition at 10 µM: < 10%
[20]
  inhibition at 10 µM: < 10%
[21]
  inhibition at 10 µM: < 10%
[22]
  inhibition at 10 µM: < 10%
[23]
  inhibition at 10 µM: < 10%
[24]
  inhibition at 10 µM: < 10%
[25]
  inhibition at 10 µM: 11%
[26]
  inhibition at 10 µM: < 10%
[27]
  inhibition at 10 µM: < 10%
[28]
  inhibition at 10 µM: < 10%

## CCOC(=O)C1=C(N)N(c2ccc(C)cc2)C2=C(C(=O)CC(C)(C)C2)C1c1ccccc1OC (racemic) [6h, (±)-Ethyl 2-amino-4–(2-methoxyphenyl)-7,7-dimethyl-1–(4-methylphenyl)-5-oxo-1,4,5,6,7,8-hexahydroquinoline-3-carboxylate]
[1]
  inhibition at 10 µM: < 10%
[2]
  inhibition at 10 µM: < 10%
[3]
  inhibition at 10 µM: < 10%
[4]
  inhibition at 10 µM: < 10%
[5]
  inhibition at 10 µM: < 10%
[6]
  inhibition at 10 µM: < 10%
[7]
  inhibition at 10 µM: < 10%
[8]
  inhibition at 10 µM: < 10%
[9]
  inhibition at 10 µM: < 10%
[10]
  inhibition at 10 µM: < 10%
[11]
  inhibition at 10 µM: < 10%
[12]
  inhibition at 10 µM: < 10%
[13]
  inhibition at 10 µM: < 10%
[14]
  inhibition at 10 µM: < 10%
[15]
  inhibition at 10 µM: < 10%
[16]
  inhibition at 10 µM: < 10%
[17]
  inhibition at 10 µM: < 10%
[18]
  inhibition at 10 µM: < 10%
[19]
  inhibition at 10 µM: < 10%
[20]
  inhibition at 10 µM: < 10%
[21]
  inhibition at 10 µM: < 10%
[22]
  inhibition at 10 µM: < 10%
[23]
  inhibition at 10 µM: < 10%
[24]
  inhibition at 10 µM: < 10%
[25]
  inhibition at 10 µM: < 10%
[26]
  inhibition at 10 µM: < 10%
[27]
  inhibition at 10 µM: < 10%
[28]
  inhibition at 10 µM: < 10%

## CCOC(=O)C1=C(N)N(c2ccccc2)C2=C(C(=O)CC(C)(C)C2)C1c1ccc(F)cc1 (racemic) [8a, (±)-Ethyl 2-amino-4–(4-fluorophenyl)-7,7-dimethyl-5-oxo-1-phenyl-1,4,5,6,7,8-hexahydroquinoline-3-carboxylate]
[1]
  inhibition at 10 µM: < 10%
[2]
  inhibition at 10 µM: < 10%
[3]
  inhibition at 10 µM: < 10%
[4]
  inhibition at 10 µM: < 10%
[5]
  inhibition at 10 µM: < 10%
[6]
  inhibition at 10 µM: < 10%
[7]
  inhibition at 10 µM: < 10%
[8]
  inhibition at 10 µM: < 10%
[9]
  inhibition at 10 µM: < 10%
[10]
  inhibition at 10 µM: < 10%
[11]
  inhibition at 10 µM: < 10%
[12]
  inhibition at 10 µM: < 10%
[13]
  inhibition at 10 µM: < 10%
[14]
  inhibition at 10 µM: < 10%
[15]
  inhibition at 10 µM: < 10%
[16]
  inhibition at 10 µM: < 10%
[17]
  inhibition at 10 µM: < 10%
[18]
  inhibition at 10 µM: < 10%
[19]
  inhibition at 10 µM: < 10%
[20]
  inhibition at 10 µM: < 10%
[21]
  inhibition at 10 µM: < 10%
[22]
  inhibition at 10 µM: < 10%
[23]
  inhibition at 10 µM: < 10%
[24]
  inhibition at 10 µM: < 10%
[25]
  inhibition at 10 µM: < 10%
[26]
  inhibition at 10 µM: < 10%
[27]
  inhibition at 10 µM: < 10%
[28]
  inhibition at 10 µM: < 10%

## CCOC(=O)C1=C(N)N(c2ccc(C)cc2)C2=C(C(=O)CC(C)(C)C2)C1c1ccc(Cl)cc1 (racemic) [8d, (±)-Ethyl 2-amino-4–(4-chlorophenyl)-7,7-dimethyl-1–(4-methylphenyl)-5-oxo-1,4,5,6,7,8-hexahydroquinoline-3-carboxylate]
[1]
  inhibition at 10 µM: < 10%
[2]
  inhibition at 10 µM: < 10%
[3]
  inhibition at 10 µM: < 10%
[4]
  inhibition at 10 µM: < 10%
[5]
  inhibition at 10 µM: < 10%
[6]
  inhibition at 10 µM: 21%
[7]
  inhibition at 10 µM: 14%
[8]
  inhibition at 10 µM: 33%
[9]
  inhibition at 10 µM: 20%
[10]
  inhibition at 10 µM: < 10%
[11]
  inhibition at 10 µM: < 10%
[12]
  inhibition at 10 µM: < 10%
[13]
  inhibition at 10 µM: < 10%
[14]
  inhibition at 10 µM: < 10%
[15]
  inhibition at 10 µM: < 10%
[16]
  inhibition at 10 µM: 16%
[17]
  inhibition at 10 µM: 24%
[18]
  inhibition at 10 µM: < 10%
[19]
  inhibition at 10 µM: < 10%
[20]
  inhibition at 10 µM: < 10%
[21]
  inhibition at 10 µM: < 10%
[22]
  inhibition at 10 µM: < 10%
[23]
  inhibition at 10 µM: < 10%
[24]
  inhibition at 10 µM: < 10%
[25]
  inhibition at 10 µM: 43%
[26]
  inhibition at 10 µM: 35%
[27]
  inhibition at 10 µM: < 10%
[28]
  inhibition at 10 µM: 16%

## CCOC(=O)C1=C(N)N(c2ccccc2)C2=C(C(=O)CC(C)(C)C2)C1c1ccc(OC)cc1 (racemic) [8f, (±)-Ethyl2-amino-4–(4-methoxyphenyl)-7,7-dimethyl-5-oxo-1-phenyl-1,4,5,6,7,8-hexahydroquinoline-3-carboxylate]
[1]
  inhibition at 10 µM: < 10%
[2]
  inhibition at 10 µM: < 10%
[3]
  inhibition at 10 µM: 15%
[4]
  inhibition at 10 µM: 18%
[5]
  inhibition at 10 µM: < 10%
[6]
  inhibition at 10 µM: < 10%
[7]
  inhibition at 10 µM: 14%
[8]
  inhibition at 10 µM: < 10%
[9]
  inhibition at 10 µM: < 10%
[10]
  inhibition at 10 µM: < 10%
[11]
  inhibition at 10 µM: < 10%
[12]
  inhibition at 10 µM: < 10%
[13]
  inhibition at 10 µM: < 10%
[14]
  inhibition at 10 µM: < 10%
[15]
  inhibition at 10 µM: < 10%
[16]
  inhibition at 10 µM: < 10%
[17]
  inhibition at 10 µM: < 10%
[18]
  inhibition at 10 µM: < 10%
[19]
  inhibition at 10 µM: < 10%
[20]
  inhibition at 10 µM: < 10%
[21]
  inhibition at 10 µM: < 10%
[22]
  inhibition at 10 µM: < 10%
[23]
  inhibition at 10 µM: < 10%
[24]
  inhibition at 10 µM: < 10%
[25]
  inhibition at 10 µM: 18%
[26]
  inhibition at 10 µM: 13%
[27]
  inhibition at 10 µM: 12%
[28]
  inhibition at 10 µM: 11%
